Experimental data taken from publication PMC7394479 (Journal of medicinal chemistry, 2020).
Entries after “also recorded” stand apart in the source; their conditions may differ. Where two headings read alike, the source gives them in different places.

Legend:
human EP2 receptor = human EP2 receptor (Homo sapiens, UniProt P43116); assay: Cell-based cAMP TR-FRET assay, Schild KB against PGE2 at EP2; details: for fold less EP2 potency in comparison to 2a: comparator 2a; for fold less potent than equivalent nicotinic derivative: 11a vs 8b, 11b vs 8g, 11c vs 8f
[1] = Kinetic aqueous solubility in PBS pH 7.4 by nephelometry; format: physicochemical; details: comparator 2a
[2] = Solubility in simulated gastric fluid pH 2.0 by nephelometry; format: physicochemical
human IP receptor = human IP receptor (Homo sapiens, UniProt P43119); assay: Cell-based cAMP TR-FRET assay, Schild KB against iloprost at IP; details: for S.I (IP/EP2): selectivity index IP KB/EP2 KB
[3] = Mouse pharmacokinetics and brain-to-plasma ratio; format: in vivo
human EP4 receptor = human EP4 receptor (Homo sapiens, UniProt P35408); assay: Cell-based cAMP TR-FRET assay, Schild KB against PGE2 at EP4; details: for S.I (EP4/EP2): selectivity index EP4 KB/EP2 KB
MDR1-MDCK cell line [4] = system: MDR1-MDCK cell line
[5] = cited from earlier work
[6] = Metabolite identification in mouse liver microsomes; format: in vitro ADME; details: 20 min incubation, LC-MS/MS
[7] = Mouse liver microsomal stability
[8] = Human liver microsomal stability; format: in vitro ADME; details: 1 μM compound, 0.5 mg/mL human liver microsomes (compounds 1 and 3)
MDR1-MDCK cell line [9] = assay: Permeability across MDR1-expressed MDCK cell monolayers
[10] = 24 h shake flask thermodynamic solubility in neat water; format: physicochemical
human DP1 receptor = target: T1, human DP1 receptor (Homo sapiens, UniProt Q13258); assay: Cell-based cAMP TR-FRET assay, Schild KB against BW245C at DP1; details: for S.I. (DP1/EP2): selectivity index DP1 KB/EP2 KB
T1 sequence (Q13258 1-359): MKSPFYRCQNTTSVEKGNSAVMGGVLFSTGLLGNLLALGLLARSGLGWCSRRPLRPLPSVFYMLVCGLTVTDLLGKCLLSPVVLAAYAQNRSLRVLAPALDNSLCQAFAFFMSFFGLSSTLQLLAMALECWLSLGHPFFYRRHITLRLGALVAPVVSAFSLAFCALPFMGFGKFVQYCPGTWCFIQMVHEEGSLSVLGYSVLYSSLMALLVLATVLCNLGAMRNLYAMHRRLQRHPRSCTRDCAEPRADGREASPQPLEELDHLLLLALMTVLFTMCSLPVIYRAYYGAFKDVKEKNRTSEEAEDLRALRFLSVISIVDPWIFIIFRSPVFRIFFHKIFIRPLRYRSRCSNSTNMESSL

Chain of human IP receptor (P43119 whole entry): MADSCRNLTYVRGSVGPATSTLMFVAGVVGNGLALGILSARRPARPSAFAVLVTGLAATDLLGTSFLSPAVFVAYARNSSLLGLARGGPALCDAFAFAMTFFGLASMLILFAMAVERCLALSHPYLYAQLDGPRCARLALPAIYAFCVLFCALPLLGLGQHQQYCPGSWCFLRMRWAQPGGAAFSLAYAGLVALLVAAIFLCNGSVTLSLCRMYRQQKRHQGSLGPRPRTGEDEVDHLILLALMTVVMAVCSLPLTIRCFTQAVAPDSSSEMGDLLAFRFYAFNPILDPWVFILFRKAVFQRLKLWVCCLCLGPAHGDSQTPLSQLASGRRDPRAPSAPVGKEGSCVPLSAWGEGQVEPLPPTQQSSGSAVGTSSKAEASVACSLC
Chain of human EP4 receptor (P35408 whole entry): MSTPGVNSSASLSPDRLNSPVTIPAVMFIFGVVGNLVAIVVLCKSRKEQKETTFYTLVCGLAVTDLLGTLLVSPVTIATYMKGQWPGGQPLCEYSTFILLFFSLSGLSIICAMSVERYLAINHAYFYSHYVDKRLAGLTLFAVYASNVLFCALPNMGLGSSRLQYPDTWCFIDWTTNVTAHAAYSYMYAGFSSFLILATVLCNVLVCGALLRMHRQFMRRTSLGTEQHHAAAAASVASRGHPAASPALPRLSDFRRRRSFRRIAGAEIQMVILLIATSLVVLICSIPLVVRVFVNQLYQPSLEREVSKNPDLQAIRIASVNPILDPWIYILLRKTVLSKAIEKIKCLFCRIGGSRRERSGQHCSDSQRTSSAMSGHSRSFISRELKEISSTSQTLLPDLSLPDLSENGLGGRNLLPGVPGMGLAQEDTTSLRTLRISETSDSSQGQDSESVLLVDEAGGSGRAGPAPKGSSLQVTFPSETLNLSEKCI
Chain of human EP2 receptor (P43116 whole entry): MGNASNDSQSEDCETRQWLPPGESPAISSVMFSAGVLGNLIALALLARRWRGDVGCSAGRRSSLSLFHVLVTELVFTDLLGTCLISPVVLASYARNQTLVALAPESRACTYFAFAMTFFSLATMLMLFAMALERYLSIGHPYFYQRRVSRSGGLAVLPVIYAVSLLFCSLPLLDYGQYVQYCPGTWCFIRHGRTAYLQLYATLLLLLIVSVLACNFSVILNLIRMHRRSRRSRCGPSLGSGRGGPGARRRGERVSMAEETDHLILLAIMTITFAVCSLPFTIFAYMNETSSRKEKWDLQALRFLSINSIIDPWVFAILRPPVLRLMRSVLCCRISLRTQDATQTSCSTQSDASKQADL

With `Cc1[nH]c2ccccc2c1CCNC(=O)c1ccc(N2CCOCC2)nc1` [2b, N-(2-(2-Methyl-1H-indol-3-yl)ethyl)-6-morpholinonicotinamide] the “fold less EP2 potency in comparison to 2a” value (human EP2 receptor) was 4 fold and the “fold increased aqueous solubility” value [1] was 3 fold.

With `Cc1cc(C)nc(Nc2ncc(C(=O)NCCc3c(C)[nH]c4c(F)cc(F)cc34)cn2)c1` [24c, N-(2-(5,7-Difluoro-2-methyl-1H-indol-3-yl)ethyl)-2-((4,6-dimethylpyridin-2-yl)amino)pyrimidine-5-carboxamide] the solubility ([2]; simulated gastric fluid) was > 100 µM, the Kb (human IP receptor) was > 10 µM and the “S.I (IP/EP2)” value (human IP receptor) was >500.

In the case of `Cc1[nH]c2ccccc2c1CCNC(=O)c1cnc(Nc2cc(F)ccn2)nc1` [20c, 2-((4-Fluoropyridin-2-yl)amino)-N-(2-(2-methyl-1H-indol-3-yl)ethyl)pyrimidine-5-carboxamide], the “in vivo stability in words” value ([3]; mouse, in vivo) is reported as “unstable in vivo”, the “S.I (IP/EP2)” value (human IP receptor) is reported as >1500 and the “S.I (EP4/EP2)” value (human EP4 receptor) is reported as >1500.

With `COc1cc(OC)cc(-c2ccc(C(=O)NCCc3c(C)[nH]c4ccccc34)nc2)c1` [11b, 5-(3,5-Dimethoxyphenyl)-N-(2-(2-methyl-1H-indol-3-yl)ethyl)picolinamide] the “fold less potent than equivalent nicotinic derivative” value (human EP2 receptor) was 11 fold.

In the case of `Cc1[nH]c2ccccc2c1CCNC(=O)c1cnc(Nc2cccnc2)nc1` [20q, N-(2-(2-Methyl-1H-indol-3-yl)ethyl)-2-(pyridin-3-ylamino)pyrimidine-5-carboxamide], the Kb (human IP receptor) is reported as > 10 µM, the “S.I (IP/EP2)” value (human IP receptor) is reported as >1200 and the Kb (human EP4 receptor) is reported as > 10 µM. The “S.I (EP4/EP2)” value (human EP4 receptor) was >1200.

With `CC(=O)c1ccc(Nc2ncc(C(=O)NCCc3c(C)[nH]c4ccccc34)cn2)nc1` [20l, 2-((5-Acetylpyridin-2-yl)amino)-N-(2-(2-methyl-1H-indol-3-yl)ethyl)pyrimidine-5-carboxamide] the “fold reduced EP2 potency in comparison to 20b” value (human EP2 receptor; comparator 20b) was 20 fold.

In the case of `Cc1[nH]c2ccccc2c1CCNC(=O)c1cnc(Nc2ccncc2)nc1` [20p, N-(2-(2-Methyl-1H-indol-3-yl)ethyl)-2-(pyridin-4-ylamino)pyrimidine-5-carboxamide], the “EP2 potency in words” value (human EP2 receptor) is reported as “complete loss of potency”.

With `Cc1cc(C)nc(Nc2ncc(C(=O)NCCc3c(C)[nH]c4ccccc34)cn2)c1` [20o, 2-((4,6-Dimethylpyridin-2-yl)amino)-N-(2-(2-methyl-1H-indol-3-yl)ethyl)pyrimidine-5-carboxamide] the solubility [2] was > 250 µM, the “efflux pump substrate status” value (MDR1-MDCK cell line [4]) was “not the substrate of efflux pumps” and the “Permeability across MDR1-MDCK cell line, A-B” value (MDR1-MDCK cell line [4]; dog) was “B-A: 22.2 × 10^−6 cm/s A-B: 13.2 × 10^−6 cm/s”. The “Permeability across MDR1-MDCK cell line, B-A” value (MDR1-MDCK cell line [4]; dog) was “B-A: 22.2 × 10^−6 cm/s A-B: 13.2 × 10^−6 cm/s”.

For `COc1cccc(-c2ccc(C(=O)NCCc3c(C)[nH]c4ccccc34)nc2)c1` [11a, 5-(3-Methoxyphenyl)-N-(2-(2-methyl-1H-indol-3-yl)ethyl)picolinamide], the “fold less potent than equivalent nicotinic derivative” value (human EP2 receptor) was 4 fold.

For `Cc1[nH]c2ccccc2c1CCNC(=O)c1ccc(-c2nnn[nH]2)cc1` [compound 3], the “stability in mouse liver microsomes” value [5] is given as > 60 min and the “metabolic fragments in mouse liver microsomes” value [6] is given as “did not produce any fragments even after 20 minutes of incubation; also recorded: has not shown any metabolic fragments even after 20 min of incubation”.

For `Cc1[nH]c2ccccc2c1CCNC(=O)c1cnc(Nc2cccc(F)n2)nc1` [20f, 2-((6-Fluoropyridin-2-yl)amino)-N-(2-(2-methyl-1H-indol-3-yl)ethyl)pyrimidine-5-carboxamide], the “fold higher half-life in mouse liver microsomes” value ([7]; 24i vs 20o, 20c vs 20b, 20f vs 20e) was 8 fold.

For `COc1ccccc1-c1ncc(C(=O)NCCc2c(C)[nH]c3ccccc23)cn1` [14a, 2-(2-Methoxyphenyl)-N-(2-(2-methyl-1H-indol-3-yl)ethyl)pyrimidine-5-carboxamide], the solubility ([2]; simulated gastric fluid) was > 100 µM, the “S.I (IP/EP2)” value (human IP receptor) was 730 and the “S.I (EP4/EP2)” value (human EP4 receptor) was 517.

For `Cc1cccc(Nc2ncc(C(=O)NCCc3c(C)[nH]c4ccccc34)cn2)n1` [20e, N-(2-(2-Methyl-1H-indol-3-yl)ethyl)-2-((6-methylpyridin-2-yl)amino)pyrimidine-5-carboxamide], the “S.I (IP/EP2)” value (human IP receptor) was >1500 and the “S.I (EP4/EP2)” value (human EP4 receptor) was >1500.

In the case of `COc1cc(/C=C/C(=O)NCCn2c(C(F)(F)F)cc3ccccc32)cc(OC)c1OC` [compound 1], the “HLM t1/2” value [8] is reported as 11 min, the “MLM t1/2” value ([7]; 1 μM compound, 0.5 mg/mL mouse liver microsomes (compounds 1 and 3)) is reported as 10 min and the “In vivo plasma t1/2” value ([3]; mice, ip/po, 10 mg/kg dose) is reported as 1.7 (ip/po, 10 mg/kg dose) h. For the same molecule, the “Permeability across MDR1-MDCK cell line, A-B” value (MDR1-MDCK cell line [9]; apical-to-basolateral) was 2.54e-05 cm/s and the “Permeability across MDR1-MDCK cell line, B-A” value (MDR1-MDCK cell line [9]; basolateral-to-apical) was 2.71e-05 cm/s.

For `Cc1[nH]c2ccccc2c1CCNC(=O)c1ccc(N2CCOCC2)cc1` [2a], the “half-life in mouse liver microsomes” value [5] is listed as < 2 min and the half-life at 1 μM ([7]; mouse, pooled liver microsomes) is listed as < 2 min.

For `Cc1cc(C)nc(Nc2ncc(C(=O)NCC(=O)c3c(C)[nH]c4ccccc34)cn2)c1` [24h, 2-((4,6-Dimethylpyridin-2-yl)amino)-N-(2-(2-methyl-1H-indol-3-yl)-2-oxoethyl)pyrimidine-5-carboxamide], the “EP2 potency in words” value (human EP2 receptor) was “eliminated the potency”.

In the case of `Cc1cc(C)nc(Nc2ncc(C(=O)NCCc3c(C)[nH]c4ccccc34)cn2)c1.Cl` [20o.HCl, 2-((4,6-Dimethylpyridin-2-yl)amino)-N-(2-(2-methyl-1H-indol-3-yl)ethyl)pyrimidine-5-carboxamide.Hydrochloride], the “water pH after dissolving the compound” value ([10]; 2 mg/mL in neat water, starting pH 6.4) is reported as 3.5.

In the case of `Cc1cc(C)nc(Nc2ncc(C(=O)NCCc3c(C)[nH]c4c(Cl)cc(Cl)cc34)cn2)c1.Cl` [24d.HCl], the “Water solubility of corresponding HCl salt” value ([10]; HCl salt, neat water, 2 mg/mL, 24 h shake flask, HPLC) is reported as “c The solubility of compounds measured in simulated gastric fluid at pH 2.0 by nephelometry. Compound 24dis a milky-white solution in DMSO and 24 h is an inactive compound. Therefore, their solubility is not determined by nephelometry, however, 24d.HClis highly water soluble”.

With `Cc1cc(C)nc(Nc2ncc(C(=O)NCCc3c(C)[nH]c4ccc(Cl)cc34)cn2)c1` [24b, N-(2-(5-Chloro-2-methyl-1H-indol-3-yl)ethyl)-2-((4,6-dimethylpyridin-2-yl)amino)pyrimidine-5-carboxamide] the Kb (human IP receptor) was > 10 µM, the “S.I (IP/EP2)” value (human IP receptor) was >350 and the Kb (human EP4 receptor) was > 10 µM. For the same molecule, the “S.I (EP4/EP2)” value (human EP4 receptor) was >350.

With `Cc1[nH]c2ccccc2c1CCNC(=O)c1ccc(-c2ccccc2F)nc1` [8e, 6-(2-Fluorophenyl)-N-(2-(2-methyl-1H-indol-3-yl)ethyl)nicotinamide] the “fold less EP2 potency in comparison to 2a” value (human EP2 receptor) was 2 fold and the “fold less EP2 potency in comparison to 8c” value (human EP2 receptor; comparator 8c (14b: vs. 14c or 8c)) was 4 fold.

With `Cc1[nH]c2ccccc2c1CCNC(=O)c1cnc(Nc2ccccn2)nc1` [20a, N-(2-(2-Methyl-1H-indol-3-yl)ethyl)-2-(pyridin-2-ylamino)pyrimidine-5-carboxamide] the “S.I. (DP1/EP2)” value (human DP1 receptor) was >900 and the “S.I (IP/EP2)” value (human IP receptor) was >900.

In the case of `Cc1ccc(Nc2ncc(C(=O)NCCc3c(C)[nH]c4ccccc34)cn2)c(C)n1` [20r, 2-((2,6-Dimethylpyridin-3-yl)amino)-N-(2-(2-methyl-1H-indol-3-yl)ethyl)pyrimidine-5-carboxamide], the “fold reduced EP2 potency” value (human EP2 receptor; comparator not clearly stated) is reported as 10 fold.

In the case of `Cc1cc(C)nc(Nc2ncc(C(=O)NCCc3c(C(F)(F)F)[nH]c4ccccc34)cn2)c1` [24f, 2-((4,6-Dimethylpyridin-2-yl)amino)-N-(2-(2-(trifluoromethyl)-1H-indol-3-yl)ethyl)pyrimidine-5-carboxamide], the “fold reduced EP2 potency in comparison to 20o” value (human EP2 receptor; comparator 20o) is reported as 8 fold.

With `COc1cccc(Nc2ncc(C(=O)NCCc3c(C)[nH]c4ccccc34)cn2)n1` [20h, 2-((6-Methoxypyridin-2-yl)amino)-N-(2-(2-methyl-1H-indol-3-yl)ethyl)pyrimidine-5-carboxamide] the Kb (human DP1 receptor) was > 10 µM, the “S.I. (DP1/EP2)” value (human DP1 receptor) was >1280 and the Kb (human IP receptor) was > 10 µM. The “S.I (IP/EP2)” value (human IP receptor) was >1280.
